# Experimental data as given in patent US20260042831A1, “METHODS OF TREATING SARCOIDOSIS WITH A TNF-A ANTIBODY AND ASSOCIATED COMPOSITIONS AND METHODS” (XENTRIA, INC., priority 2022, published 2026).
# “Also recorded” adds a separate entry of the source. Read-outs that look alike come from different tables or passages of the source.
# Columns and labels:
# [1] = tested on: chronic refractory pulmonary sarcoidosis; conditions: low- and high-dose IV infusion, at 24 weeks; cited from earlier work
# [2] = tested on: PBMCs from subjects with active pulmonary sarcoidosis; test: In vitro granuloma model of sarcoidosis: granuloma formation (MIPAR area fraction)
# Text: (§1) PMBCs were exposed to either uncoated bead (UNC) or Mycobacterium tuberculosis (M. tb) antigen PPD-coated beads for 7 days. […] Following imaging, supernatant samples were collected and quantified for extracellular cytokine release using an enzyme-linked immunosorbent assay.
# [3] = tested on: TNFα, IL-1β, IFNγ release; test: In vitro granuloma model of sarcoidosis: supernatant cytokine release (ELISA); conditions: 30 minutes pre-treatment, 7 days following PPD
# Text: as §1
# [4] = tested on: transgenic TC (TgTC) mice (rheumatoid arthritis model); test: In vivo primary pharmacology: arthritis scores in TgTC mice; design: species or system mouse; conditions: for arthritis scores compared to vehicle control: Day 29 and Day 43 (p<0.01)
# [5] = tested on: normal human tissues and human sarcoidosis tissue; test: Tissue cross-reactivity study (GLP, immunohistochemistry on cryosections); assay type: binding; conditions: for Tissues Showing Evidence of Staining: Sp2/0-Ag14 cells: negative control; for Tissues Showing Evidence of Staining: T3-33 (TNFα-expressing) cells: positive control, 5 and 20 μg/mL
# Protocol: Human tonsil, human lung and lymph node with sarcoidosis, and human small intestine with Crohn's disease were also included in the study.
# Samples from 1 to 3 separate donors from each of the listed tissues were evaluated. Fresh, unfixed tissue samples were placed into molds, filled with Tissue-Tek® OCT Compound, and frozen at −85 to −70° C. until sectioning. Sections were cut at approximately 5 μm and fixed in acetone for 10 minutes at room temperature. Human blood smears were stored at −85° to −70° C. until fixation and staining. XTMAB16 (primary antibody) was incubated overnight with biotinylated donkey anti-human IgG secondary labeled antibody. XTMAB16 and the control article, hIgG1, were tested at concentration of 5 and 20 μg/mL. Immunopathology was assessed by light microscopy.
# The following human tissues were assessed in this cross-reactivity study: • 1. Positive Control: • Cryosections of T3-33 (TNFα-expressing) cells • 2. Negative Control: • Cryosections of Sp2/0-Ag14 cells • 3. Ancillary Controls: • Cryosections of human tonsil (mononuclear cells; 2 donors) • Cryosections of human small intestine with Crohn's disease (mononuclear cells; 1 donor) • Cryosections of human lung with sarcoidosis (mononuclear cells; 1 donor) • Cryosections of human lymph node with sarcoidosis (mononuclear cells; 1 donor)
# [6] = higher staining concentration (20 μg/mL), rare to occasional cells
# [7] = lower staining concentration (5 μg/mL)
substance,measurement,setting,value
Infliximab: a monoclonal antibody (mAb) targeting TNFα that is being used off-label to treat sarcoidosis,increase in predicted forced vital capacity,[1],2.5%
XTMAB-16: a chimeric (human/murine) IgG1 mAb directed against TNFα,IC50 for decrease in granuloma area fraction,[2],5.197 µg/mL
same,granuloma formation (area fraction),"[2]; 30 minutes pre-treatment (XTMAB-16 1 to 40 μg/mL; prednisone 1 to 10 μM), 7 days following PPD",significantly attenuated; also recorded: significant dose-response effect
same,IC50 for decrease in granuloma area fraction,"[2]; MIPAR area fraction, all subject samples, 7 days after PPD-coated beads",5.2 µg/mL
same,granuloma cytokine release,[3],significant dose-response effect
same,arthritis scores compared to vehicle control,"[4]; 20 mg/kg/dose on Days 1, 15, 29",statistically significant improvement
same,arthritis scores compared to vehicle control,"[4]; 40 mg/kg/dose on Days 1, 15, 29",statistically significant improvement
same,"arthritis scores, 20 versus 40 mg/kg/dose",[4]; t test: p>0.05,no significant differences
same,Tissues Showing Evidence of Staining: Smooth myocytes,"[5]; adrenal, bladder, cerebellum, cerebral cortex, cervix, kidney, large intestine, liver, lymph node, lung, striated muscle, nerve, ovary, pancreas, placenta, prostate, parathyroid, skin, small intestine, spleen, stomach, testis, thymus, tonsil, uterus",Cytoplasm of vascular and/or intrinsic smooth
same,"Tissues Showing Evidence of Staining: mononuclear cells in human tonsil, small intestine with Crohn's disease, lung with sarcoidosis, lymph node with sarcoidosis",[5]; ancillary controls,Ancillary control tissues (+)
same,majority of non-mononuclear cell binding,[5]; binding observed at only the higher concentration in most tissues,low affinity
same,Tissues Showing Evidence of Staining: Epithelial cells,"[5]; esophagus, Fallopian tube, kidney, lung (bronchioles), pancreas (acini), pituitary, salivary gland, skin (sweat glands), stomach (mucosa)",Cytoplasm only of epithelial cells stained
same,mononuclear cell staining intensity in normal human tissues,[5]; higher concentration,weak to strong or weak to moderate
same,staining of membrane and cytoplasm of mononuclear cells in human tonsil,[5]; [6],weakly to strongly stained
same,"staining of mononuclear cells in small intestine with Crohn's disease, lung with sarcoidosis, lymph node with sarcoidosis",[5]; [6],weakly to strongly stained
same,Tissues Showing Evidence of Staining: Glomerular tuft cells,[5]; kidney,Cytoplasm of renal glomerular tuft cells
same,mononuclear cell staining in normal human tissues,"[5]; lower concentration, versus higher concentration","comparable, reduced, or no staining"
same,staining of mononuclear cells in human tonsil,[5]; [7],weak to strong and rare staining
same,"staining of mononuclear cells in small intestine with Crohn's disease, lung with sarcoidosis, lymph node with sarcoidosis",[5]; [7],weak to moderate and rare staining
same,Tissues Showing Evidence of Staining: Endothelial cells,[5]; lymph node,Cytoplasm of endothelial cells in the lymph node.
same,Tissues Showing Evidence of Staining: Myoepithelial cells,[5]; mammary gland,Membrane and cytoplasm of myoepithelial cells
same,Tissues Showing Evidence of Staining: Sp2/0-Ag14 cells,[5],Negative control cryosections (−)
same,Tissues Showing Evidence of Staining: Sp2/0-Ag14 cells,[5]; listed as XTMAB16,did not react specifically
same,Tissues Showing Evidence of Staining: Mononuclear cells,"[5]; normal human bladder, cervix, esophagus, large intestine, liver (Kupffer cells), lymph node, lung, pancreas, placenta (Hofbauer cells), parathyroid, salivary gland, skin, small intestine, spleen, stomach, thyroid, thymus, tonsil, uterus","stained the membrane and cytoplasm; also recorded: Membrane and cytoplasm of resident, migrating,"
same,Tissues Showing Evidence of Staining: T3-33 (TNFα-expressing) cells,[5],Positive control cells (+)
same,Tissues Showing Evidence of Staining: T3-33 (TNFα-expressing) cells,[5]; listed as XTMAB16,weak to strong membrane and cytoplasmic staining
